# Data: US11155580B2, “Modified proteins and methods of use thereof” (YALE UNIVERSITY, priority 2013, dated 2021)
# Entries after “also recorded” stand apart in the source; their conditions may differ. Where no end group is shown, it is not given here. rhodamine = not defined here; Rhod = not defined here
# Legend:
# [1] = tested on: HeLa cells transfected with pGR-mCherry and Rab5-GFP or Rab5Q79L-GFP; experiment: GR-mCherry translocation in cells expressing Rab5-GFP or Rab5Q79L-GFP; type: cell-based; details: 1 μM, 30 min
# Experimental: Cotransfected cells expressing Rab-GFP fusions and pGR-mCherry were identified via their characteristic pattern of green and red fluorescence. The translocation ratio was determined using median values of mCherry fluorescence within the nucleus and surrounding region using CellProfiler.
# HeLa cells transfected for 24-36 hr with pGR-mCherry and either Rab5-GFP or Rab5Q79L-GFP were plated (10^4/well in […]) the day prior to experiments in 96 well glass bottom plates (Matrical). The cells were washed with HKR buffer and the nuclei labeled using Hoescht as above. […] The cells were incubated for a further 30 min at 37° C. before imaging. Cells that had been cotransfected with EGFP fusions were identified via their characteristic pattern of green and red fluorescence. To evaluate the extent of GR activation, epifluorescence images were obtained as described above, except the fluorescence of pGR-mCherry was also visualized using Zeiss Filter Set #43 (ex BP 545/25 nm, FT 570, em BP 605/70 nm).
# (§1) The image analysis algorithm used by CellProfiler is customizable and contained within a ‘Pipeline’ that describes a series of image manipulation and evaluation steps, such as reading the image, adjusting the intensity, and identifying objects. Each step has several options. […] Using the image of Hoescht fluorescence and Otsu's method of automatic thresholding, nuclei were identified and segmented using 3 class thresholding. The middle class was assigned to background. Closely approximated objects were separated using ‘Laplacian of Gaussian’ modeling, and touching nuclei were divided using the ‘shape’ option. Nuclear regions were expanded by 2 μm to generate an enlarged region. The nuclear region was subtracted from enlarged region to generate a ring surrounding the nucleus (surround). The diameter of the surrounding region was chosen to be 2 μm larger than the nucleus, within the range (1-3 μm) used by previously reported high content screens (Ding et al., 1998, J Biol Chem. 273:28897-28905; Peeraniet al., 2007, EMBO J. 26:4744-4755). The ratio of the median intensities of the nuclear and surrounding region of the GFP or mCherry (as appropriate) image were collected for every cell examined. Those cells falling below a threshold of intensity (10% of the maximum intensity of the image) were discarded as ‘untransfected’. Typically, 20-60 transfected cells from 15-30 images were examined for each experimental condition.
# [2] = tested on: HeLa cells transfected with GR-GFP; experiment: GR-GFP translocation assay (cytosolic access of Dex-labeled molecules); type: cell-based; details: for translocation ratio (TR): HeLa cells expressing GR-GFP
# Experimental: HeLa cells transfected with pK7-GR-GFP were plated in Matrical plates as described above. To label nuclei, the media was replaced with HKR buffer containing 300 nM Hoescht and the cells incubated for 30 min at 37° C.
# Cells were then analyzed as described above.
# HeLa cells transfected with pK7-GR-GFP for 24-36 hr were plated (10^4/well in 200 μL) the day prior to experiments in 96 well glass bottom plates (Matrical). The media was replaced with HKR buffer containing 300 nM Hoescht and the cells incubated for 30 min at 37° C. […] The cells were incubated for a further 30 min at 37° C. before epifluorescence imaging using a Zeiss Axiovert 200M microscope fitted with a mRM digital camera, a 63×1.3NA PlanApo objective and an EXFO-Excite illumination source.
# Uptake was allowed to proceed for an additional 30 min at 37° C. before analysis by epifluorescence images as described elsewhere herein.
# as §1, with “The diameter of the surrounding region was chosen to be 2 μm larger than the nucleus, within the range (1-3 μm) used by previously reported high content screens (Ding et al., 1998, J Biol Chem. 273:28897-28905; Peeraniet al., 2007, EMBO J. 26:4744-4755).” left out
# [3] = Figure 15
# Excerpt: Table printed on a drawing sheet, Figure 15
# The amino acid sequence of Arg8 is provided in SEQ ID NO:68.
# First reader's note: Cytosolic concentration and percent in cytosol are taken as measures of cell permeability or uptake; the supplied text has no description of Figure 15.
# [4] = tested on: U2OS(GIGI) cells; experiment: GIGI in lysates, stably transfected U2OS(GIGI) cells; type: cell-based; details: Dex-labeled peptides, 24 h, lysates, read-out: EC50 (eGFP expression, GIGI)
# Excerpt: RFUs are expressed±standard deviation (Excel). The maximum induction level is defined as RFUmax. Data were processed using Kaleidagraph and GraphPad Prism software. RFU=([I530]/[I580])−([I′530]/[I′580]) (1)
# Y=Ymin+(Ymax−Ymin)/(1+10^logEC50-X) (2)
# [5] = tested on: HeLa cells; experiment: Colocalization with Alexa-488-transferrin (Tf488), live cell confocal microscopy; type: cell-based; details: 1 μM, 30 min
# Experimental: To examine the colocalization of rhodamine labeled miniature proteins or peptides with Alexa-488-transferrin (Tf488), HeLa cells were plated (200 μl, 10^4 cells/well, 96 well glass bottom plates, Matrical) the day prior to experiments. The media was replaced with 150 μL Hepes-Krebs-Ringer's (HKR) buffer (140 mM NaCl, 2 mM KCl, 1 mM CaCl2, 1 mM MgCl2, 10 mM Hepes pH 7.4) containing 1 μM miniature protein or 25 nM Alexa-488-transferrin (Molecular Probes) and the cells incubated at 37° C. for 30 min. The cells were then rinsed twice with 200 μL, HKR buffer and nuclei were labeled by overlaying 200 μL HKR containing 300 nM Hoechst 33342 (Molecular Probes Cat. # H3570) for 5 minutes. Images of cells were acquired using a PerkinElmer LiveView spinning disk confocal microscope fitted with a 60×1.2 NA objective. Colocalization with Rab-GFP fusions was examined in an analogous way using HeLa cells transfected with the appropriate expression plasmid.
# Colocalization between rhodamine and fluorescein labeled miniature proteins and peptides, or between rhodamine labeled miniature proteins and markers of endocytosis was completed using confocal microscopy. Live cell confocal microscopy was conducted using a PerkinElmer LiveView spinning disk confocal microscope fitted with heated microscope enclosure (maintained at 37° C.), a 60×1.2 NA objective, laser illumination, a Nipkow CSU-1× spinning disk, and a Hammamatsu CS9100 EMCCD camera operated using Velocity software. Alexafluor-488-transferrin was detected using a 488 nm laser and a 520 nm long pass filter; tetraethylrhodamine and Alexafluor-546-transferrin were detected using a 546 nm laser line and a 580 nm long pass filter, Hoescht 33342 was detected using a 405 nm laser line and a 450 nm long pass filter. Images were processed for presentation by using the ‘subtract background’ option and linear contrast adjustments in Image J. All adjustments were applied uniformly to the entire image. Colocalization analysis was performed using the JACOP plugin (Bolte and Cordelières, 2006), available on the ImageJ website. The fraction of rhodamine signal overlapping with EGFP signal (R E G) was calculated using Mander's coefficient and automatic thresholding. Pearson's correlation coefficient (R) was also obtained using the JACOP plugin.
# [6] = target: cathepsin B (Homo sapiens, UniProt P07858); experiment: Resistance to acid proteases: cathepsin B; type: in vitro ADME; details: 50 pmol, 30 min, 37° C., pH 5
# Experimental: 50 pmol aPPR, 5.2R, 5.3R, ZF5.3R, TatR (SEQ ID NO:67), or Arg8R (SEQ ID NO:68) were incubated with 5 pg cathepsin B, D, or L for 30 min at 37° C. in 10 μL of 20 mM sodium phosphate buffer (pH 5) containing 150 mM NaCl. At the end of the incubation, the reaction was stopped by adding 40 μL of a solution containing a 84:15:1 ratio of water:EtOH:TFA before analysis by HPLC.
# [7] = tested on: HeLa cells; experiment: Effects of endocytosis inhibitors on cell uptake, confocal microscopy; type: cell-based; details: 1 μM rhodamine labeled, 30 min, 37° C.
# Experimental: HeLa cells grown for 24 h in glass bottom plates were incubated with HKR buffer, or HKR buffer containing 80 μM dynasore, 50 μM N-ethyl-isopropyl-amiloride, or 5 mM methyl-β-cyclodextrin for 30 min at 37° C. prior to the addition of 1 μM rhodamine-labeled miniature protein or peptide (Tat (SEQ ID NO:67) and Arg8 (SEQ ID NO:68)). The cells were washed twice with DMEM, the nuclei labeled with Hoescht, and images acquired as described above for colocalization experiments.
# [8] = tested on: HeLa cells; experiment: HPLC analysis of cytosolic extracts prepared with streptolysin O; type: cell-based; details: HeLa cells treated with rhodamine labeled molecule
# Experimental: To generate cytosolic extracts, HeLa cells were treated with streptolysin O (SLO), a well characterized bacterial toxin that creates pores in the plasma membranes of target cells (Walev et al., 2002, FASEB 16:237-239). […] Moreover, when the toxin is added to cultured cells at 4° C. and washed with PBS before raising the temperature to 37° C., pores are created only in the plasma membrane and the release of ER, golgi, or endolysosomal contents are avoided (Androlewicz et al., 1993, Proc Natl Acad Sci USA 90:9130-9134).
# First, selective release of the cytoplasmic contents of HeLa cells using the published procedures was verified. HeLa cells were treated with 20 μg/mL SLO in PBS containing 5 mM DTT (20 min, 4° C.), washed (three PBS washes, 150 μL each), resuspended in PBS, and incubated at 37° C. for 15 min, after which 1.5 μM propidium iodide (PI), a marker of permeabilized cell membranes, was added.
compound,measurement,setting,value
"C[C@@H]1C[C@H]2[C@@H]3CCC4=CC(=O)C=C[C@]4(C)[C@@]3(F)[C@@H](O)C[C@]2(C)[C@@]1(O)C(=O)CO [Dex, dexamethasone]","TR (GR-mCherry), Rab5Q79L-GFP expressing cells",[1]; Rab5Q79L-GFP,2.45±0.21
same,"TR (GR-mCherry), Rab5-GFP expressing cells",[1]; wild-type Rab5-GFP,2.24±0.15
same,reduction of the increase in TR by MβCD,"[2]; 5 mM MβCD, 1 μM",53%
GRKKRRQRRRPPQY [Tat],% in cytosol,[3],0.93%
same,[molecule] in cytosol,[3],4.63 nM
K^DexGPSQPTYPGDDAPVEDLIRFYNDLQQYLNVVTRHRY-NH2 (K(dexamethasone)GPSQPTYPGDDAPVEDLIRFYNDLQQYLNVVTRHRY-NH2) [aPPDex],"TR (GR-mCherry), cells expressing Rab5Q79L-GFP or Rab5-GFP",[1],1.25±0.04
same,effect of bafilomycin on TR,"[2]; 200 nM bafilomycin pretreatment 1 h, then 1 μM",did not alter the effect
same,translocation ratio (TR),"[2]; 1 μM, 30 min",1.41±0.09
same,effect of EIPA on TR,"[2]; 50 μM EIPA pretreatment 30 min, then 1 μM, 30 min",None of the endocytosis inhibitors altered the TR
same,effect of dynasore on TR,"[2]; 80 μM dynasore pretreatment 30 min, then 1 μM, 30 min",None of the endocytosis inhibitors altered the TR
same,effect of methyl-β-cyclodextrin (MβCD) on TR,"[2]; 5 mM MβCD pretreatment 30 min, then 1 μM, 30 min",None of the endocytosis inhibitors altered the TR
same,EC50,[4],438 nM
K^DexWYSCNVCGKAFVLSAHLNQHLAVHTQAT-NH2 (K(dexamethasone)WYSCNVCGKAFVLSAHLNQHLAVHTQAT-NH2; cysteine pairing not given here) [ZFDex],translocation ratio (TR),"[2]; 1 μM, 30 min",1.4±0.05
same,EC50,[4],103 nM
K^RhodGPSQPTYPGDDAPVEDLIRFYRDLRRYLNVVTRHRY-NH2 (K(rhodamine)GPSQPTYPGDDAPVEDLIRFYRDLRRYLNVVTRHRY-NH2; reading uncertain; also: printed as K^RhodGPSQPTYPGDDAPVEDLIRFYRDLRRYLNVVTRHRY-NH2) [4.3R],intracellular red fluorescent signal,[5],red fluorescent puncta throughout the cytosol
K^RhodGPSQPTYPGDDAPVRDLIRFYRDLQRYLNVVTRHRY-NH2 (K(rhodamine)GPSQPTYPGDDAPVRDLIRFYRDLQRYLNVVTRHRY-NH2; reading uncertain; also: printed as K^RhodGPSQPTYPGDDAPVRDLIRFYRDLQRYLNVVTRHRY-NH2) [4.2R],intracellular red fluorescent signal,[5],red fluorescent puncta throughout the cytosol
K^RhodGPSQPTYPGDDAPVRDLIRFYRDLQRYLRVVTRHRY-NH2 (K(Rhod)GPSQPTYPGDDAPVRDLIRFYRDLQRYLRVVTRHRY-NH2; reading uncertain; also: printed as KRhodGPSQPTYPGDDAPVRDLIRFYRDLQRYLRVVTRHRY-NH2) [5.2R],intracellular red fluorescent signal,[5],red fluorescent puncta throughout the cytosol
same,degradation by cathepsin B (HPLC),[6],several additional small peaks
K^RhodRRRRRRRR-NH2 (K(Rhod)RRRRRRRR-NH2; reading uncertain; also: printed as K^RhodRRRRRRRR-NH2) [Arg8R],intracellular red fluorescent signal,[5],red fluorescent puncta throughout the cytosol
same,effect of EIPA on uptake,[7]; 50 μM EIPA,dramatically reduced the uptake
same,effect of dynasore on uptake,[7]; 80 μM dynasore,completely blocked the uptake
same,effect of MβCD on uptake,[7]; 5 mM MβCD,increased
same,degradation by cathepsin B (HPLC),[6],little or no degradation
same,material found in SLO cytoplasmic extracts (HPLC),[8],retention times distinct from the starting material; also recorded: little or no material with the same retention time as the starting material
RRRRRRRR [Arg8],% in cytosol,[3],2.8%
same,[molecule] in cytosol,[3],14.0 nM
WYSCNVCGKAFVLSRHLNRHLRVHRRAT [ZF5.3],% in cytosol,[3],59%
same,[molecule] in cytosol,[3],249 nM
